Data taken from patent publication US20060183221A1, “Method for neural differentiation of embryonic stem cells using protease passaging techniques” (priority 2003, published 2006).
Entries after “also recorded” stand apart in the source; their conditions may differ.

How the values were obtained:
[1] = system: Oct4; assay: Oct4 expression by immunoblotting in EB8 stage ES cells incubated with S18; assay type: cell-based, mouse
Method: (§1) In vitro differentiating ES cells at stage EB8 were incubated for 24-48 hours with 75 μM S18, or 35 μM N-acyl sphingosine or other ceramide analogs. Protein was isolated from cells incubated with S18 for 24 hours and from untreated cells, separated by SDS-PAGE, and the expression of Oct4 was analyzed by immunoblotting.

[2] = system: EB8-derived cells; assay: Injection of ceramide analog treated EB8-derived stem cells into mouse brains, teratoma formation; assay type: in vivo; settings: EB8-derived cells treated with 75 μM S18 for 24-48 hours, injected into brain of 8-10 day old C57BL6 mice, analysed after 7-21 days
Method: as §1
Prior to injection into the mouse brain, ES cells were labeled with Vybrant-DiI (rhodamine fluorescence) for permanent vital staining and were mixed with India ink in order to track the injection channel and cell migration/tissue integration. 1×10^4 of the untreated ES-J1 cells were injected, while 2×10^4 of the S18-treated cells were injected in order to control for the percentage of cells lost to apoptosis. The ES cells were injected into the right brain hemisphere (bregma −1.5 mm, 1 mm lateral of central suture, 2.0 mm deep) of 8-10 day old C57BL6 mice using a Hamilton syringe. After 7-21 days, the mice were sacrificed, the brain isolated and fixed with 10% PBS-buffered formalin. The brains were Vibratome sectioned at 100 μm. The distribution of the injected cells was determined by fluorescence microscopy.

[3] = system: sfEBMs in suspension; assay: S18 treatment of essentially serum free embryoid bodies (sfEBMs) in suspension, histology and immunocytochemistry; assay type: cell-based, human
Method: Essentially serum free embryoid bodies (sfEBMs) were generated as described in Example 6, and were exposed to S18 at different stages of their development in order to assess the timing of depletion of high Oct4 expressing cells, and in order to determine when neural rosettes could be selected. The sfEBMs in suspension were treated with 10 μM S18 in 50% DMEM/F12, 50% MEDII, supplemented with 1×N2, Glutamine (20 mM), penicillin (0.5 U/ml), and streptomycin (0.5 U/ml) for varying amounts of time, and the sfEBMs were then evaluated histologically and by immunocytochemistry.
Essentially serum free embryoid bodies were derived from protease passaged cells and grown in the presence of 50% MEDII conditioned medium. The embryoid bodies were exposed to 10 μM S18 in the same medium from day 6 to 9 after derivation. At day 9 the S18 treated sfEBMs and matched control sfEBMs not exposed to S18 were fixed, embedded in plastic, cut to 3 micron sections and stained with DAPI to enable the precise determination of the proportion of the total healthy nuclei of an sfEBM that were rosette cell nuclei.
This material was exposed to 10 μM S18 in 50% MEDII medium for 2 days, followed by manual passaging, and an additional 4 days in 10 μM S18 in the same medium. […] The non-rosette regions of the sfEBM fragmented when manipulated and released extensive stringy material that was indicative of genomic DNA from lysed cells. […] The rosette pieces were incubated in 10 μM S18 for a further 4 days, and the medium was then switched to 50% DMEM/F12, 50% MEDII, supplemented with 1×N2, and 4 ng/ml FGF-2 at day 20 after the initial derivation of the embryoid bodies.
At day 21 some ceramide selected sfEBMs were seeded onto polyornithine/laminin coated slides, cultured in the same medium for an additional 8 days, and fixed for immunostaining. These seeded pieces developed as rosette cultures and mats of neurons were observed differentiating from these precursors.
Essentially serum free embryoid bodies were derived from manually passaged cells, or protease passaged cells. EBs derived from protease passaged cells were formed in the presence of 50% MEDII conditioned medium. The embryoid bodies were exposed to 10 μM S18 in the same medium from day 6 to 9 after derivation. At day 9 the S18 treated sfEBMs matched control sfEBMs not exposed to S18, and matched control manually passaged sfEBs were sectioned to enable the precise determination of the proportion of the total healthy nuclei of an sfEBM that were rosette cell nuclei. The serum free embryoid bodies were embedded using the Immuno-Bed kit (Polysciences, Inc.). Serum free embryoid bodies were rinsed with 1×PBS and fixed in 4% paraformaldehyde, 4% sucrose in 1×PBS for 30 minutes at 4° C. The cells were then washed in 1×PBS and stored at 4° C. PBS was removed and the embryoid bodies were dehydrated by incubation in a series of 25%, 50%, 75% Ethanol/PBS for 5 minutes at room temperature, followed by 100% Ethanol. Infiltration solution was made by adding 0.25 g Benzoyl Peroxide to 20 ml Immuno-Bed Solution A. The ethanol was removed from the serum free embryoid bodies and 1 ml infiltration solution was added. After one hour, the infiltration solution was changed for three 20 min incubations. For embedding, 1 ml solution B (accelerator) was added to 25 ml fresh infiltration solution. The infiltration solution was removed from the serum free embryoid bodies and 0.5 ml embedding solution was added. The samples were transferred to a mold, a block holder was added and the mold was placed at 4° C. to set. 3 micron sections were cut using a Leica microtome, and were stained with DAPI.

[4] = system: SSEA4 selected HESCs; assay: Neural differentiation of SSEA4 selected bulk passaged HESCs as serum free embryoid bodies with or without MEDII and S18, seeded and immunostained; assay type: cell-based, human; settings: with or without 10 μM S18 from day 13 to day 17
Method: Cultures were treated with or without 10 μM S18 from day 13 to day 17. After S18 treatment, serum free embryoid bodies were washed several times and cultured further until day 18. Serum free embryoid bodies were cut into pieces to seed down to polyornithine/laminin coated slides.
In the presence of MEDII, a consistently high proportion of the culture contained TH+ neurons, with the background of non-neural regions that was negative for the neuronal marker βIII-Tubulin typically lower than 10%. It was not determined whether the effect of MEDII induced more efficient neuralization or inhibited the generation of non-neural cell types. […] This proportion was determined by analysis of double staining of neural extensions for βIII-Tubulin and TH (FIG. 18), and overlaying Hoffman images with TH immunofluorescence (FIG. 19). The increase in the proportion of TH+ neurons in MEDII treated differentiations appeared to be due to the overall increase in neuronal differentiation, rather than an effect on the proportion of neurons that were dopaminergic, because the proportions of neurons that were TH+ in differentiations not exposed to MEDII was equally high. Another marker of DA cells, VMAT, was expressed in similarly high proportions of cells within the sfEBM cultures. TH+/VMAT−, TH−/VMAT+ and TH+/VMAT+ cells were observed (FIG. 20), possibly indicating temporal variability in the induction of expression of these markers prior to being co-expressed.

[5] = sfEBMs at day 14, 48 hours exposure to 10 μM S18

With `CCCCCCCC/C=C\CCCCCCCC(=O)NC(CO)CO` [S18, N-(2-hydroxy-1-(hydroxymethyl)ethyl)-oleoylamide] the “Oct4 protein level by immunoblot relative to untreated control cells” value ([1]; 75 μM S18 for 24 hours, SDS-PAGE immunoblot) was 25%, the “decrease in Oct4 protein levels” value ([1]; after treatment with S18) was 75% and the teratoma formation [2] was “No teratomas were detected; also recorded: did not show the formation of teratomas”. For the same molecule, the “derivation of sfEBMs from monolayer crater cells” value ([3]; 10 μM S18, four days of treatment) was “No viable embryoid bodies were observed”, the “regions or cells of high Oct4 expression (residual pluripotent cells)” value ([3]; 10 μM S18 in suspension, then seeded, anti-Oct4 immunostaining) was “no regions of high Oct4 expression could be detected; also recorded: do not exhibit any cells expressing high levels of Oct4” and the “mitotic activity of neural rosette precursor cells (PhosphoHistone H3)” value ([3]; day 28 after derivation, 8 days after withdrawal of S18) was “still mitotically active”. The “apoptosis in the embryoid bodies” value [3, 5] was “extensive apoptosis in the bodies”, the “morphology of rosette regions” value [3, 5] was “morphologically normal” and the “surviving cells in DAPI stained sections of sfEBMs” value ([3]; sfEBMs from SSEA4 selected protease passaged HESCs, 10 μM S18 from day 6 to 9) was “highly enriched population of neural rosette cells; also recorded: nearly all nuclei in the treated sfEBM were elongated in appearance; also recorded: Nearly all cells exhibited a radial nuclear staining”. For the same molecule, the “differences between S18− and S18+ cultures (sfEB, sfEBM)” value [4] was “No gross morphological or immunocytochemical staining differences were observed”.
